In the METLIN SMRT retention time set (Domingo-Almenara et al. 2019):

Experiment: gradient 5% acetonitrile 3 min, to 50% in 2 min, to 85% in 15 min, held 3 min, 100 µL/min
Details: column: Zorbax Extend-C18 2.1 x 50 mm; eluents: water / acetonitrile, 0.1% formic acid
Method in brief: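 In both positive and negative ionization mode, a quadrupole time-of-flight mass spectrometer coupled to HPLC analyzed pure standards run in mixtures of ~100 molecules. The Zorbax Extend-C18 column (2.1 × 50 mm, 1.8 μm) was operated at 100 μL/min with water and acetonitrile, each containing 0.1% formic acid. The dead volume was 40 μL and the dwell volume 900 μL. Retention time came from adduct peaks that were computationally picked and individually inspected by hand.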

Row | RP-LC retention time [s] | SMILES
1 | 895 | O=C(CCc1ccccc1)NCCc1c[nH]c2ccc(Cl)cc12
2 | 617 | CCn1c(=O)cc(OCC(=O)NCCN(C)Cc2ccccc2)c2ccccc21
3 | 938 | CCc1csc(-c2ccc(N3CCN(C(=O)c4nccc5ccccc45)CC3)nc2)n1
4 | 960 | Cc1cccc(NC(=O)C2CCCN(c3ccc(=O)n(-c4cccc(Cl)c4)n3)C2)c1C (centres undefined)
5 | 581 | O=C(NCc1cnccn1)c1ccnc(N2CCNC(c3ccccc3)C2)c1 (centres undefined)
6 | 680 | O=C(NCCCN1CCc2ccccc2C1)c1nnc(-c2ccc(S(=O)(=O)N3CCCC3)cc2)o1
7 | 815 | O=C(Nc1ccc2c(c1)OCCO2)C1CCCN(C(=O)c2ccc(Cl)cc2)C1 (centres undefined)
8 | 918 | CCc1ccccc1N1C=C(C(=O)OC)S(=O)(=O)c2ccccc21
9 | 649 | CN(C)S(=O)(=O)c1ccc(-c2nnc(C(=O)NCc3ccccn3)o2)cc1
10 | 554 | O=C(NCC(c1cccnc1)N1CCN(Cc2ccccc2)CC1)Nc1ccccc1Cl (centres undefined)
11 | 809 | CCN(C(=O)C(=O)c1c(C)[nH]c2ccccc12)c1ccccc1
12 | 695 | O=C(c1ccccc1)N1CCC(n2c(-c3ccoc3)nc3cccnc32)C1 (centres undefined)
13 | 830 | CCCC(=O)N1CCc2c([nH]c3ccccc23)C12C(=O)Nc1ccccc12 (centres undefined)
14 | 833 | CCOC(=O)C1CCN(c2nc(=O)n(CC(=O)Nc3cccc(C)c3)c3ccccc23)CC1
15 | 627 | O=C(O)c1cccn2c(=O)c3ccccc3nc12
16 | 1040 | CCc1cccc(NC(=O)CSc2cc(N3CCN(c4ccc(OC)cc4)CC3)ncn2)c1
17 | 858 | O=C(Cn1cc(C(=O)c2ccco2)c2ccccc21)NCc1ccc2c(c1)OCCCO2
18 | 997 | CCn1c(=O)c(N2CCN(C(=O)Nc3cc(F)ccc3F)CC2)nc2ccccc21
19 | 704 | CSc1ccc(CNC(=O)C2CCCN(c3cc(=O)n(C)c(=O)n3C)C2)cc1 (centres undefined)
20 | 818 | COc1cccc(N2CCN(c3ccnc(SCC(=O)Nc4cc(OC)ccc4OC)n3)CC2)c1
21 | 865 | Cc1cc(NC(=O)C2Oc3ccccc3NC2=O)ccc1Br (centres undefined)
22 | 778 | COc1ccccc1CNC(=O)C1CCN(c2ccc(SCc3ccccc3)nn2)CC1
23 | 646 | O=C(NCc1ccc(N2CCCC2)nc1)c1cccc(Br)c1
24 | 686 | O=C(CN1c2ccc(Br)cc2-c2ccccc2S1(=O)=O)NCc1cccnc1
25 | 614 | Cc1nc(NC(=O)CNC(=O)c2c[nH]c3ccccc23)sc1C(=O)N(C)C
26 | 764 | O=C(NCc1ccccc1)C1CC(=O)N(CCc2c[nH]c3ccc(F)cc23)C1 (centres undefined)
27 | 896 | Cc1ccccc1NS(=O)(=O)c1cn(C(C)C)c2ncccc12
28 | 1000 | O=C(c1ccncc1)N1CCc2c([nH]c3ccccc23)C1c1ccc(Cl)cc1 (centres undefined)

The next lines start with the molecule.

Row | SMILES | RP-LC retention time [s]
29 | Cc1cc(C)c(S(=O)(=O)N2CCC(c3noc(-c4ccccc4C)n3)CC2)c(C)c1 | 1430
30 | O=C(Nc1ccccc1)NC1CCN(C(=O)N2C[C@H]3C[C@H](C2)[C@H]2CCCC(=O)N2C3)CC1 | 654
31 | COc1c(C=O)c(O)cc2c1C(=O)c1ccccc1C2=O | 967
32 | O=C(NC1CC1)C1CCCN(C(=O)c2ccoc2)C1 (centres undefined) | 584
33 | Cn1cnnc1SCCNC(=O)Cc1csc(Nc2ncccn2)n1 | 564
34 | C#CCSc1n[nH]c(-c2ccco2)n1 | 719
35 | CN(CC1CCCO1)S(=O)(=O)c1ccc(C(=O)Nc2sc3c(c2C#N)CCC3)cc1 (centres undefined) | 957
36 | Cc1cn(C)c(CC(=O)NCCCN2CCN(C)CC2)c1C(=O)O | 561
37 | O=C(c1ccccn1)N1CC(n2cnnc2C2CCCO2)C1 (centres undefined) | 582
38 | COC(=O)c1cc2c(=O)n(-c3cc(Cl)ccc3Cl)ccc2nc1C | 944
39 | Cc1nn(-c2nc(-c3ccc(F)cc3)cs2)c(C)c1CC(=O)Nc1ccc(F)cc1 | 1150
40 | COc1ccc(NC(=O)c2cn(C)nc2S(=O)(=O)N2CCC(C)CC2)c(F)c1 | 997
41 | CCOC(=O)c1cnc2nc(C)ccc2c1Nc1ccc(F)c(F)c1 | 703
42 | Cc1ccc(-c2ccc(N3CCCC(C(=O)N4CCC(C(N)=O)CC4)C3)nn2)cc1C (centres undefined) | 622
43 | CCOC(=O)c1cc[nH]c1CC(=O)NC | 672
44 | Cc1ccc(CNS(=O)(=O)c2cc(-c3nc(C(C)(C)C)cs3)cs2)cc1C | 1350
45 | CC(C)C(=O)Nc1ccc(N2CCN(c3ccccc3)C2=O)nc1 | 832
46 | COc1cc(OC)cc(N2C(=O)C3N=NN(Cc4nc(-c5ccc(Cl)cc5)no4)C3C2=O)c1 (centres undefined) | 1020
47 | CCCOc1ccc(C2NC(=O)NC(C)=C2C(=O)OC2CCCC2)cc1OC (centres undefined) | 857
48 | COc1ccc(-c2ccc3ncc4c(c3c2)n(-c2ccc(N3CCNCC3)c(C(F)(F)F)c2)c(=O)n4C)cn1 | 630
49 | C=C1C(=O)O[C@@H]2/C=C(\C)CCC=C(C)CC[C@@H]12 | 1090

Row | SMILES | RP-LC retention time [s]
50 | Cc1ccc(-c2nnc(-c3cccc(S(=O)(=O)NCC4CCCO4)c3)o2)cc1 (centres undefined) | 918
51 | CCOc1ccc(CNS(=O)(=O)c2cc(C(=O)N3CCCC3)n(C)c2C)cc1 | 771
52 | COC(=O)CNC(=O)N1CCCCCC1c1ccc(Cl)cc1 (centres undefined) | 870
53 | COCC1CN(C)CC12CCN(Cc1cccc(OC)n1)CC2 (centres undefined) | 567
54 | CC(C)CNC(=O)c1ccc(-c2nc3cccnc3n2C2CCCCC2)cc1 | 926
55 | CCOC(=O)c1c(C)oc2nc(C)nc(NCc3ccc(OC)cc3OC)c12 | 1140
56 | COc1ccc(N2CCN(c3cc(SCC(=O)Nc4cc(C)ccc4C)ncn3)CC2)cc1 | 1020
57 | COc1nccnc1N1CCC(N(C)C(=O)c2ccc(C)s2)C1 (centres undefined) | 785
58 | COc1ccc(OC)c(NC(=O)C2CCN(S(=O)(=O)c3ccc4c(c3)NC(=O)C(C)O4)CC2)c1 (centres undefined) | 856
59 | COc1ccc(C2CC(=O)N(c3cccc(F)c3)C(=O)C2)cc1OC | 839
60 | Cc1cc(C)cc(C(=O)N2CCCC(C(=O)NCCN(C)C)C2)c1 (centres undefined) | 599
61 | COc1ccccc1NC(=O)C1CCN(S(=O)(=O)c2cn(C(C)C)cn2)CC1 | 757
62 | COc1ccc(S(=O)(=O)Nc2cc(-c3cn4cccc(C)c4n3)ccc2C)cc1 | 664
63 | COc1ccc(F)cc1S(=O)(=O)N1CCC2(CC1)c1nccn1CCN2C | 564
64 | CC(C)C(=O)N1CCc2c(c(C(=O)N3CCC(C(=O)N4CCCCCC4)CC3)nn2C)C1 | 656
65 | COc1cccc(-c2[nH]ncc2CN2C[C@@H]3CCN(S(C)(=O)=O)C[C@]3(CF)C2)c1 | 599
66 | Cc1ccc(-c2ccc(=O)n(C(C)C(=O)O)n2)cc1 (centres undefined) | 684
67 | CCN1CCCn2cc(S(=O)(=O)N3CCCCCC3)cc2C1=O | 747
68 | CCCc1nc(C(C)(C)O)c(C(=O)OCc2oc(=O)oc2C)n1Cc1ccc(-c2ccccc2-c2nn[nH]n2)cc1 | 832
69 | COc1ccc(NC(=O)Nc2c(-c3ccncc3)[nH]c3ccc(F)cc23)c(OC)c1 | 683
70 | CC(C)c1ccc(OCC(=O)Nc2cnn(C)c(=O)c2N2CCOCC2)cc1 | 952

Row | SMILES | RP-LC retention time [s]
71 | COc1ccc(C(=O)N2CCC(COc3ccc(C(=O)NC(C)C)cc3)CC2)cc1F | 834
72 | CCC(C)NC(=O)CN1CCN(C(=O)Nc2ccc(Cl)cc2)CC1=O (centres undefined) | 686
73 | Cc1[nH]c(C)c(S(=O)(=O)N2CCC(C(=O)N3CCc4ccccc43)CC2)c1C(=O)N1CCCCC1 | 778
74 | CCc1ccc(NC(=O)Cn2ncc3c(c2=O)N(C2CC2)C(=O)CS3)cc1 | 797
75 | CO[C@H]1C(=O)N(C(C)C)[C@H]1C1CCN(S(=O)(=O)c2cccnc2)CC1 | 700
76 | COc1ccc(C(=O)Nc2cccn3nc(C4CCC4)nc23)cc1 | 905
77 | O=C(Cn1c(=O)c2cccn2c2ccc(F)cc21)N1CCC(N2CCCCC2)CC1 | 606
78 | Cc1cc(C)n(-c2cc(NCc3ccccn3)ncn2)n1 | 600
79 | O=C(c1ccoc1)N1CCc2cc(-c3csc(C4CC4)n3)ccc21 | 1060
80 | O=C(Nc1ccc2c(c1)OCO2)c1nnc(C(=O)N2CCCC(C(=O)NC3CCCC3)C2)s1 (centres undefined) | 860
81 | CC(C)(Oc1ccc(Cl)cc1)C(=O)N1CCN(C(=O)C2CC2c2cccs2)CC1 (centres undefined) | 1020
82 | CCOc1ccc(NC(=O)c2[nH]c3cc(C)sc3c2CN2CCOCC2)cc1 | 1160
83 | COc1ccc(OC)c(NC(=O)c2ccc(S(=O)(=O)NC3CC3)cc2)c1 | 778
84 | Cc1cccc(-c2noc(CSc3nccn3-c3ccccc3)n2)c1 | 969
85 | CN1c2cc(F)ccc2C(=O)NC12CCN(C(=O)c1ccc(Cl)cc1)CC2 | 785
86 | CC(=O)Nc1ccc2c(c1)CN(C(=O)c1c(F)cccc1Cl)C(C(=O)N(C)C)C2 (centres undefined) | 900
87 | CCCNC(=O)C1CCCN(c2ccc(SCC(=O)NCc3cc(F)cc(F)c3)nn2)C1 (centres undefined) | 646
88 | N#Cc1cccc(-c2cn3c(n2)N(C(=O)Cc2ccsc2)CCC3)c1 | 822
89 | CCC(CC)C(=O)Nc1nc(-c2ccc3c(c2)N(CC)C(=O)CO3)cs1 | 980
